A value given as a limit tells only on which side of the number the result lay.

The target in one assay is T1, SLC19A2 (Homo sapiens, UniProt O60779).
T1 sequence (O60779 1-497): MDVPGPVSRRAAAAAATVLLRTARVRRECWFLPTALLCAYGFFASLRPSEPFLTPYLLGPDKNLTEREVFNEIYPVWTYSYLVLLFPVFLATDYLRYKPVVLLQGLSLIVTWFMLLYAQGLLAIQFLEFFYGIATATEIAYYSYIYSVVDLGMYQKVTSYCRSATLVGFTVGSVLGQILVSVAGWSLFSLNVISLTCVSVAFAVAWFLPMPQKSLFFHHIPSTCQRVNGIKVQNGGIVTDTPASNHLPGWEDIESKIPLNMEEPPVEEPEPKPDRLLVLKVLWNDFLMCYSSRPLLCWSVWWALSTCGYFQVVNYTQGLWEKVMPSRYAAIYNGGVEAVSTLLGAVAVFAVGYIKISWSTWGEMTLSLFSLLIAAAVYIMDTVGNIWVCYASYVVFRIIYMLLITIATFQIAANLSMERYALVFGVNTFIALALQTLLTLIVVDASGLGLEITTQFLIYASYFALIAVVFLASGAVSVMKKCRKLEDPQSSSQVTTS
The assay is described as follows: SLC19A2 inhibitor screen: [3H]-thiamine uptake in SLC19A2-overexpressing HEK293 cells. On the set-up: host or cells: HEK293, stably overexpressing SLC19A2 and transiently transfected with a further 500 ng wild-type plasmid. The settings on record: HEK293, 10 min, drug 1 mM, [3H]-thiamine 25 nM, 10 min, HEK293 cells expressing SLC19A2; relative to uptake without inhibitor; read-out: Average % SLC19A2 thiamine uptake. The format is cell-based. On the procedure:
Plasmids encoding wild-type SLC19A2 and three TRMA-associated variants were generated by Genscript Inc. (Piscataway, USA). Methods for generation of stably overexpressing SLC19A2 cell lines and uptake studies have been previously described ([11], [12]). Inhibition and kinetic studies were performed in SLC19A2-overexpressing stable HEK293 cells transiently transfected with an additional 500 ng of SLC19A2 wild-type plasmid.
Prescription drugs associated with MA ([2]) in addition to others belonging to listed drug classes (e.g., proton-pump inhibitors; 63 compounds total) were screened in triplicate at 1 mM to evaluate inhibitory activity against SLC19A2. […] Each plate contained control wells exposed for 10 min (within linear range, Supplemental Figure 1) to [^3H]-thiamine (positive control), [^3H]-thiamine plus 1 mM of amprolium (negative control), and [^3H]-thiamine plus 1 mM of screened drug (3 replicates per drug). Methods have been previously described ([11]). SLC19A2 inhibitors were defined as compounds that decreased SLC19A2-mediated thiamine uptake by 50% or more at 1 mM. For compounds that met this definition, inhibition assays were conducted and IC50 values were calculated by nonlinear fitting using GraphPad Prism 7 (La Jolla, CA) ([11]).
Fig. 3 Common mechanisms of drug-induced megaloblastic anemia and SLC19A2 inhibitor drug screen workflow. A list of drugs associated with inducing megaloblastic anemia through various mechanisms was compiled (a). Each drug was dissolved to a final concentration of 1 mM in buffer containing radiolabeled [^3H] thiamine and exposed to HEK293 cells expressing SLC19A2 wild-type transporter for 10 min.
`Nc1ccc(O)c(C(=O)O)c1` [5-aminosalicylic acid]: the remaining activity at 1000 µM was 87.7%. The same measure, in the same setting: in the case of `O=c1[nH]cc(F)c(=O)[nH]1` [5-fluorouracil] it was 93.8%. Consider `Oc1ncnc2[nH]ncc12` [Allopurinol], for which the remaining activity at 1000 µM worked out at 96.9%. On the same count and under the same terms, the same measure for `NCC[C@H](O)C(=O)N[C@@H]1C[C@H](N)[C@@H](O[C@H]2O[C@H](CN)[C@@H](O)[C@H](O)[C@H]2O)[C@H](O)[C@H]1O[C@H]1O[C@H](CO)[C@@H](O)[C@H](N)[C@H]1O` [Amikacin]: 98.7%.

Consider `Nc1nc(N)c2nc(CNc3ccc(C(=O)N[C@@H](CCC(=O)O)C(=O)O)cc3)cnc2n1` [Aminopterin], for which the remaining activity at 1000 µM was found to be 93%. Consider `CC1(C)S[C@@H]2[C@H](NC(=O)[C@H](N)c3ccc(O)cc3)C(=O)N2[C@H]1C(=O)O` [Amoxicillin], for which the remaining activity at 1000 µM was determined as 95.9%. Regarding `CO[C@H]1O[C@@H]2O[C@@]3(C)CC[C@H]4[C@H](C)CC[C@@H]([C@H]1C)[C@@]24OO3` [Artemether], the remaining activity at 1000 µM was 67.4%. The same measure, in the same setting: the same measure for `Cn1cnc([N+](=O)[O-])c1Sc1ncnc2nc[nH]c12` [Azathioprine]: 87.2%; for `CC[C@H]1OC(=O)[C@H](C)[C@@H](O[C@H]2C[C@@](C)(OC)[C@@H](O)[C@H](C)O2)[C@H](C)[C@@H](O[C@@H]2O[C@H](C)C[C@H](N(C)C)[C@H]2O)[C@](C)(O)C[C@@H](C)CN(C)[C@H](C)[C@@H](O)[C@]1(C)O` [Azithromycin]: 81.9%; for `CC1(C)S[C@@H]2[C@H](NC(=O)C(C(=O)O)c3ccccc3)C(=O)N2[C@H]1C(=O)O` (stereo partly shown) [Carbenicillin]: 90.8%. For `O=C(N[C@H](CO)[C@H](O)c1ccc([N+](=O)[O-])cc1)C(Cl)Cl` [Chloramphenicol], the remaining activity at 1000 µM amounted to 91.5%. Same read-out and setting: the same measure for `CN/C(=N/CCSCc1nc[nH]c1C)NC#N` [Cimetidine]: 107%. On the same count and under the same terms, in the case of `CC[C@H]1OC(=O)[C@H](C)[C@@H](O[C@H]2C[C@@](C)(OC)[C@@H](O)[C@H](C)O2)[C@H](C)[C@@H](O[C@@H]2O[C@H](C)C[C@H](N(C)C)[C@H]2O)[C@](C)(OC)C[C@@H](C)C(=O)[C@H](C)[C@@H](O)[C@]1(C)O` [Clarithromycin] it was 58.2%. The same measure, in the same setting: in the case of `C[C@H]1c2cccc(O)c2C(=O)C2=C(O)[C@]3(O)C(=O)C(C(N)=O)=C(O)[C@@H](N(C)C)[C@@H]3[C@@H](O)[C@@H]21` [Doxycycline] it was 67.8%; in that of `COc1ccc2nc([S@@+]([O-])Cc3ncc(C)c(OC)c3C)[nH]c2c1` [Esomeprazole], 57.7%; in that of `C[C@]12CC[C@@H]3c4ccc(O)cc4CC[C@H]3[C@@H]1CC[C@@H]2O` [Estradiol], 112%. As for `NC(N)=Nc1nc(CSCCC(N)=NS(N)(=O)=O)cs1` [Famotidine], the remaining activity at 1000 µM stood at 74%. Consider `Cc1cnc(Nc2ccc(OCCN3CCCC3)cc2)nc1Nc1cccc(S(=O)(=O)NC(C)(C)C)c1` [Fedratinib], for which the remaining activity at 1000 µM is 21%. Still for that read-out and setting: in the case of `Nc1nc(F)nc2c1ncn2[C@@H]1O[C@H](CO)[C@@H](O)[C@@H]1O` [Fludarabine] it was 71.1%; in that of `Nc1ccn([C@@H]2O[C@H](CO)[C@@H](O)C2(F)F)c(=O)n1` [Gemcitabine], 63.3%; in that of `CNC(C)C1CCC(N)C(OC2C(N)CC(N)C(OC3OCC(C)(O)C(NC)C3O)C2O)O1` (stereo not shown) [Gentamicin], 81.9%. `NNC(=O)c1ccncc1` [Isoniazid]: the remaining activity at 1000 µM is 108%. On to `Cc1c(OCC(F)(F)F)ccnc1C[S+]([O-])c1nc2ccccc2[nH]1` (stereo not shown) [Lansoprazole], for which the remaining activity at 1000 µM is 45.9%.

As for `Cc1oncc1C(=O)Nc1ccc(C(F)(F)F)cc1` [Leflunomide], the remaining activity at 1000 µM came to 57.7%. As for `CC(=O)NC[C@H]1CN(c2ccc(N3CCOCC3)c(F)c2)C(=O)O1` [Linezolid], the remaining activity at 1000 µM was 77.7%.

As to `S=c1[nH]cnc2nc[nH]c12` [Mercaptopurine], the remaining activity at 1000 µM worked out at 90.5%.

For the compound `CN(C)C(=N)N=C(N)N` [Metformin], the remaining activity at 1000 µM came out at 74.2%. Still for that read-out and setting: the same measure for `CN(Cc1cnc2nc(N)nc(N)c2n1)c1ccc(C(=O)N[C@@H](CCC(=O)O)C(=O)O)cc1` [Methotrexate]: 84.9%; for `COc1c(C)c2c(c(O)c1C/C=C(\C)CCC(=O)O)C(=O)OC2` [Mycophenolic acid]: 82.7%; for `Cc1onc(-c2ccccc2)c1C(=O)N[C@@H]1C(=O)N2[C@@H]1SC(C)(C)[C@@H]2C(=O)O` [Oxacillin]: 110%. On the same count and under the same terms, the same measure for `[H]/N=C(/N)N/C(=N/[H])NCCc1ccccc1` [Phenformin]: 82.3%. Regarding `O=C1NC(=O)C(c2ccccc2)(c2ccccc2)N1` [Phenytoin], the remaining activity at 1000 µM was 75%. On the same count and under the same terms, the same measure for `COc1cc(NC(C)CCCN)c2ncccc2c1` (stereo not shown) [Primaquine]: 76.5%; for `[H]/N=C(\N/C(=N/[H])Nc1ccc(Cl)cc1)NC(C)C` [Proguanil]: 68.8%; for `CCc1nc(N)nc(N)c1-c1ccc(Cl)cc1` [Pyrimethamine]: 99.2%. Regarding `C=C[C@H]1C[N@@]2CC[C@H]1C[C@@H]2[C@@H](O)c1ccnc2ccc(OC)cc12` [Quinidine], the remaining activity at 1000 µM worked out at 53%. As to `C=C[C@H]1C[N@@]2CC[C@H]1C[C@H]2[C@H](O)c1ccnc2ccc(OC)cc12` [Quinine], the remaining activity at 1000 µM is 69.7%. On to `COCCCOc1ccnc(C[S+]([O-])c2nc3ccccc3[nH]2)c1C` (stereo not shown) [Rabeprazole], for which the remaining activity at 1000 µM is 75.3%. Regarding `Cc1nc2ccc(CN(C)c3ccc(C(=O)N[C@@H](CCC(=O)O)C(=O)O)s3)cc2c(=O)[nH]1` [Raltitrexed], the remaining activity at 1000 µM was determined as 88.2%. The same measure, in the same setting: the same measure for `CNC(=C[N+](=O)[O-])NCCSCc1ccc(CN(C)C)o1` [Ranitidine]: 111%; for `CO[C@H]1/C=C/O[C@@]2(C)Oc3c(C)c(O)c4c(O)c(c(/C=N/N5CCN(C)CC5)c(O)c4c3C2=O)NC(=O)/C(C)=C\C=C\[C@H](C)[C@H](O)[C@@H](C)[C@@H](O)[C@@H](C)[C@H](OC(C)=O)[C@@H]1C` [Rifampicin]: 56.1%.

Regarding `COc1ncnc(NS(=O)(=O)c2ccc(N)cc2)c1OC` [Sulfadoxine], the remaining activity at 1000 µM stood at 94.8%. On the same count and under the same terms, the same measure for `O=C(O)c1cc(/N=N/c2ccc(S(=O)(=O)Nc3ccccn3)cc2)ccc1O` [Sulfasalazine]: 101%; for `C/C(O)=C(\C#N)C(=O)Nc1ccc(C(F)(F)F)cc1` [Teriflunomide]: 95.7%; for `CN(C)[C@@H]1C(O)=C(C(N)=O)C(=O)[C@@]2(O)C(O)=C3C(=O)c4c(O)cccc4[C@@](C)(O)[C@H]3C[C@@H]12` [Tetracycline]: 83.6%.

For the compound `Nc1nc2nc[nH]c2c(=S)[nH]1` [Thioguanine], the remaining activity at 1000 µM was 93.3%.

Take `Nc1nc(N)c2nc(-c3ccccc3)c(N)nc2n1` [Triamterene]: the remaining activity at 1000 µM was 111%.

Staying with this assay, now noted: HEK293, 10 min, read-out: Average % SLC19A2 thiamine uptake.
Turning to `CC1(C)S[C@@H]2[C@H](NC(=O)[C@H](N)c3ccccc3)C(=O)N2[C@H]1C(=O)O` [Ampicillin], the remaining activity at 1000 µM turned out to be 102%. The same measure, in the same setting: the same measure for `COc1cc2c(c(OC)c1OC)-c1ccc(OC)c(=O)cc1[C@@H](NC(C)=O)CC2` [Colchicine]: 95.9%.

The same assay, now with this note: HEK293, 10 min; at 1 mM; read-out: reduction in thiamine transport (designated SLC19A2 inhibitor).
For `Cc1cnc(Nc2ccc(OCCN3CCCC3)cc2)nc1Nc1cccc(S(=O)(=O)NC(C)(C)C)c1` [Fedratinib], the inhibition at 1000 µM is not below 50%.

As to `Cc1c(OCC(F)(F)F)ccnc1C[S+]([O-])c1nc2ccccc2[nH]1` (stereo not shown) [Lansoprazole], the inhibition at 1000 µM was not below 50%.

The assay is the same for the next values; noted with them: drug 1 mM, [3H]-thiamine 25 nM, 10 min, HEK293 cells expressing SLC19A2; relative to uptake without inhibitor.
In the case of `NC(=O)NO` [Hydroxyurea], the “Average % SLC19A2 thiamine uptake” value is given as 105.5%.

In the case of `CCCCN(CCCC)CC(O)c1cc(Cl)cc2c1-c1ccc(Cl)cc1/C2=C/c1ccc(Cl)cc1` (stereo not shown) [Lumafantrine], the “Average % SLC19A2 thiamine uptake” value amounted to 87.72%.

Regarding `O=C1CN(/N=C/c2ccc([N+](=O)[O-])o2)C(=O)N1` [Nitrofuranatoin], the “Average % SLC19A2 thiamine uptake” value is listed as 101.075%. With Neomycin, the “Average % SLC19A2 thiamine uptake” value came to 86.37%.

For the origin of these results see article PMC7921063, “The Effects of Genetic Mutations and Drugs on the Activity of the Thiamine Transporter, SLC19A2” (The AAPS Journal, 2021).
